Measured values taken from publication PMC11477141, “Chemokine Receptor N-Terminus Charge Dictates Reliance on Post-Translational Modifications for Effective Ligand Capture and Following Boosting by Defense Peptides” (International Journal of Molecular Sciences, 2024).
Where no end group is shown, it is not given here.

How the values were obtained:
[1] = biological target: fully sulfated version of the CCR1 N-terminal peptide; set-up: method as in PMID 30567735; details: read-out: affinity for the fully sulfated version of the CCR1 N-terminal peptide; cited from earlier work
Y10A-CCR5 = assay: BRET CAMYEL Gαi signaling via Y10A-CCR5; format: cell-based, human; details: CHO cells, n = 3
Protocol: (§1) BRET measurements of Gαi signaling and β-arrestin recruitment: Cells were seeded in 6-well plates (500,000 cells/well) and transiently transfected the following day. For BRET measurements of Gαi signaling, cells were transfected with vectors encoding the human chemokine receptors as indicated (160 ng/well) and the CAMYEL sensor (cAMP sensor, YFP-Epac-RLuc) (840 ng/well) using Lipofectamine (6 µL/well). Briefly, DNA was dissolved in 125 µL OPTI-MEM and Lipofectamine was dissolved in 125 µL OPTI-MEM. The DNA and Lipofectamine solutions were combined into a transfection mixture. The transfection mixture was added dropwise to cells incubated in OPTI-MEM (1 mL/well). Transfections were terminated after 5 h by adding 1 mL of fresh culture medium on top of the OPTI-MEM. The following day the cells were loosened from the plates in PBS with 5 mM glucose and subsequently aliquoted in white 96-well iso plates (~25,000 cells/well). […] The BRET signal is determined as the ratio eYFP (530 nm)/Rluc (480 nm).
(§2) BRET principle with CAMYEL: For quantification of signaling initiated immediately downstream of receptor activation, we used the cAMP binding CAMYEL sensor to perform bioluminescence resonance energy transfer (BRET) based assays. […] The BRET ratio is determined as the ratio between YFP/Rluc, and an increase in BRET ratio indicates a decrease in cAMP and thus increased chemokine receptor activation. […]

S6S7T16S17AAAA-CCR5 = assay: BRET CAMYEL Gαi signaling via S6S7T16S17AAAA-CCR5; format: cell-based, human; details: CHO cells, n = 3
Protocol: as §1, §2

[2] = tested on: peptides corresponding to the CCR5 receptor N-terminus; details: cited from earlier work
From the text: CCR5, in contrast to CCR1, has an N-terminus that is sparse in acidic amino acids but has multiple tyrosine sulfation sites as well as O-glycosylation sites, that might increase the negative charge of the receptor N-terminus through post-translational modifications. CCL5 affinity towards peptides corresponding to the CCR5 receptor N-terminus increases by ≥100-fold if the peptides are sulfated on Y10 and Y14 [30], and the same tyrosine sulfation is needed for HIV1env protein binding and viral entry.

T16S17AA-CCR5 = assay: BRET CAMYEL Gαi signaling via T16S17AA-CCR5; format: cell-based, human; details: CHO cells, n = 3
Protocol: as §1, §2

Y10Y14Y15AAA-CCR5 = assay: BRET CAMYEL Gαi signaling via Y10Y14Y15AAA-CCR5; format: cell-based, human; details: CHO cells, n = 3
Protocol: as §1, §2

S6S7AA-CCR5 = assay: BRET CAMYEL Gαi signaling via S6S7AA-CCR5; format: cell-based, human; details: CHO cells, n = 3
Protocol: as §1, §2

Y14Y15AA-CCR5 = assay: BRET CAMYEL Gαi signaling via Y14Y15AA-CCR5; format: cell-based, human; details: CHO cells, n = 3
Protocol: as §1, §2

naked CCR1 N-terminus = naked CCR1 N-terminus (Homo sapiens, UniProt P32246); assay: Fluorescence polarization binding to FAM-labeled CCR1 N-terminal peptide; details: FAM probe 250 nM, FP buffer PBS:MilliQ 1:3, peptide 12.21 nM to 100 µM, n = 3, read-out: dissociation constant (Kd) for CCR1 N-terminal peptide
Sequence of naked CCR1 N-terminus (P32246 with tags, fused parts or gaps limits assumed): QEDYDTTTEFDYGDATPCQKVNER
Protocol: (§3) Fluorescence polarization (FP) assay: The carboxyfluorescein (FAM)-labeled peptides representing the CCR1 and CCR5 N-termini functioned as the probes for quantifying the interaction between the receptor N-terminus and C21TP^81-111. The probe was diluted in FP buffer (1:3, PBS:MilliQ) and 10 µL was added to a final concentration of 250 nM per well in a black 384-well plate (Corning). The C21TP^81-111 peptide (2 mM) was diluted using a two-fold dilution series; 30 µL of the peptide was added to each well to final concentrations ranging from 12.21 nM to 100 µM. Blanks containing 10 µL probe and 30 µL FP buffer were included. The plate was spun down at 1000 rpm for 1 min and the FP signal was measured on a Flex station using SoftMax Pro software 7.0. Each experiment was conducted in triplicate. The binding curves were generated by plotting the FP signal, expressed as millipolarization units (mP), against C21TP^81-111 concentration. The dissociation constant (Kd) value was calculated using GraphPad Prism 9.
(§4) Probes: • CCR1: (5,6-FAM)-[…], • CCR5: (5,6-FAM)-ADYQVSSPIYDINYYTSEP.

naked CCR5 N-terminus = assay: Fluorescence polarization binding to FAM-labeled CCR5 N-terminal peptide; set-up: species or system human
Protocol: as §3, §4

Kd (naked CCR1 N-terminus) [nM]	boosting of CCL5 signaling via Y10A receptor variant (Y10A-CCR5; 10 µM peptide)	boosting of CCL5 signaling via S6S7T16S17AAAA receptor variant (S6S7T16S17AAAA-CCR5; 10 µM peptide)	binding to the naked CCR5 N-terminus (naked CCR5 N-terminus)	boosting of CCL5 signaling via T16S17AA receptor variant (T16S17AA-CCR5; 10 µM peptide)	boosting of CCL5 signaling via Y10Y14Y15AAA receptor variant (Y10Y14Y15AAA-CCR5; 10 µM peptide)	boosting of CCL5 signaling via S6S7AA receptor variant (S6S7AA-CCR5; 10 µM peptide)	boosting of CCL5 signaling via Y1415AA receptor variant (Y14Y15AA-CCR5; 10 µM peptide)	Substance	Kd [1] [nM]	Gαi signaling via Y10A-CCR5 compared to WT-CCR5 (Y10A-CCR5)	Gαi signaling via S6S7T16S17AAAA-CCR5 compared to WT-CCR5 (S6S7T16S17AAAA-CCR5)	increase of affinity towards CCR5 N-terminus peptides if sulfated on Y10 and Y14 [2] [fold]	Gαi signaling via T16S17AA-CCR5 compared to WT-CCR5 (T16S17AA-CCR5)	Gαi signaling via Y10Y14Y15AAA-CCR5 compared to WT-CCR5 (Y10Y14Y15AAA-CCR5)	Gαi signaling via S6S7AA-CCR5 compared to WT-CCR5 (S6S7AA-CCR5)	Gαi signaling via Y14Y15AA-CCR5 compared to WT-CCR5 (Y14Y15AA-CCR5)
								CCL5: human chemokine from Peprotech, overall basic	100	significantly reduced	completely abolished	≥ 100	improved	completely abolished	significantly reduced	completely abolished
~2890	maintained	not in S6S7T16S17AAAA	no such binding is observed	maintained	no longer possible	maintained	maintained	RKDRGASKTGKKGKGSKGCKRTERSQTPKGP [C21TP^81-111]								
